The conditions of experiment [1]: cited from earlier work; for DPPH^• removal IC50 (literature): 50 (in order of compounds); for IC50 values for comparison (radical scavenging; assay not given, paragraph on DPPH): 53 (in order of compounds).
On the set-up of experiment [2]: method as in ref 47, 48, 3, 53, 49, 48, 12, 53, 50 (in order of compounds). The conditions noted are these: 50 (in order of compounds); cited from earlier work.
On the set-up of experiment [3]: method as in ref 12, 43, 3, 44, 45, 46 (in order of compounds). The conditions noted are these: similar quantities; 46 (in order of compounds); cited from earlier work.
The nature of experiment [4]: DMPD radical scavenging (505 nm). As to the method:
(§1) The DPPH radical scavenging activities were assessed by measuring the absorbance at 517 nm after keeping in the dark for 30 min [81]. […] ABTS solution (7.0 mM) was prepared using K2S2O8 ([…]), and the absorbance of the control was set to 0.700 ± 0.025 at 734 nm on dilution with buffer solution (0.1 M and pH 7.4). […] The control included only ABTS radical solution [82]. […] Briefly, 0.2 mL of FeCl3 (50 mM) and 1 mL of DMPD solution were added to the buffer (pH 5.3, 100 mM). The concentrations of all of the samples were 10–30 μg/mL. The total volume was adjusted to […] using deionized water. An aliquot (1 mL) of DMPD radicals was added, and the absorbance was recorded at 505 nm. The radical scavenging results were expressed as half maximal scavenging concentrations (IC50, μg/mL).

A short description of experiment [5]: Fe^3+ reducing ability (K3Fe(CN)6 reduction, absorbance at 700 nm). The settings on record: 30 μg/mL concentration. As for the experimental part: (§2) The reaction was terminated by adding 1 mL of trichloroacetic acid (TCA, 10%). Following this, 0.5 mL of newly prepared FeCl3 (0.1%) was transferred, and the absorptions were measured at 700 nm. Deionized water was used as the blank control. […] Finally, after 20 min, absorbances were recorded at 450 nm.

The nature of experiment [6]: DPPH radical scavenging (Blois method, 517 nm). As for the experimental part: as §1
The nature of experiment [7]: Cu^2+ reducing ability (CUPRAC, neocuproine, absorbance at 450 nm). The settings on record: 30 μg/mL concentration. As for the experimental part: as §2
The nature of experiment [8]: ABTS radical scavenging (734 nm). As to the method: as §1
On the set-up of experiment [9]: method as in ref 12, 3, 47, 48, 49, 50 (in order of compounds). The conditions noted are these: same concentration; 50 (in order of compounds); cited from earlier work.
Experiment [10] has as its target T1, acetylcholinesterase (AChE) (Electrophorus electricus, UniProt O42275).
T1 construct: purchased Sigma-Aldrich GmbH (Steinheim, Germany)
The experiment in a line: biochemical. As to the method:
AChI and BChI were used as substrates for enzymatic reactions.
(§3) The Ki values and other parameters were calculated from Lineweaver-Burk graphs as described priorly. The Ki values were taken out from this graph. All of the analyses were independently conducted in triplicate, and the results are expressed as mean values ± SD.

Experiment [11] deals with T2, human carbonic anhydrase II (hCA II) (Homo sapiens, UniProt P00918).
T2 construct: from tissue; host or cells: human erythrocytes
In words: Carbonic anhydrase II inhibition (esterase activity, 348 nm). Type of experiment: biochemical. As to the method: The CA II isozyme was purified from human erythrocytes using Sepharose-4B-Tirozyne-sulfanylamide affinity column chromatography. Further, it was precipitated, and the serum was separated and adjusted with solid Tris to pH 8.7. The sample was then loaded to the affinity chromatography column and equilibrated with Tris-Na2SO4/HCl (pH 8.7, 22 mM/25 mM). CA II was eluted with sodium acetate/NaClO4 (0.5 M, pH 5.6, 25 °C). Protein quantity during the purification study was determined using the Bradford method. Bovine serum albumin was used as the standard protein [93]. The purity of CA II was controlled using SDS-PAGE [94]. During purification and inhibition of CA II, esterase activities were performed following the change in absorbance at 348 nm
as §3

T1 sequence (O42275 24-633): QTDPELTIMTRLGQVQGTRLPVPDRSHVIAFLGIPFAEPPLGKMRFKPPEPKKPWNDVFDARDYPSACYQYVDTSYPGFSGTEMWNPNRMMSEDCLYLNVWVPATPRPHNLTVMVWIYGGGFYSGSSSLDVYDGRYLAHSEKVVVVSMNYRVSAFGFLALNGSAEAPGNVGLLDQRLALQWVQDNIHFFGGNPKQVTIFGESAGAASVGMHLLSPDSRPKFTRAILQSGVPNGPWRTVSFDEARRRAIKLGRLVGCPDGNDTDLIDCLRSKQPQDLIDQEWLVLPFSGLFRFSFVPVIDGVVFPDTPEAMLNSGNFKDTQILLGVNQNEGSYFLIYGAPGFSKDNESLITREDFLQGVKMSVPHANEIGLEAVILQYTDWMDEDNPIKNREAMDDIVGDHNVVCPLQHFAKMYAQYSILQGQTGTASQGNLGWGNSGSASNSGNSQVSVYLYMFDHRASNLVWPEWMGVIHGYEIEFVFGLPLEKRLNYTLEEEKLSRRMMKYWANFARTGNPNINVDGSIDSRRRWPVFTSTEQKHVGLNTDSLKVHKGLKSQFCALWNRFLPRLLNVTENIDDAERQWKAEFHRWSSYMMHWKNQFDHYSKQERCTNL

In the case of `O=C(/C=C/c1ccc(O)c(O)c1)OCCc1ccccc1` [CAPE, caffeic acid phenethyl ester], in [1], the “DPPH^• removal IC50 (literature)” value is 3.30 µg/mL and the “IC50 values for comparison (radical scavenging; assay not given, paragraph on DPPH)” value was 9.80 µg/mL. Further, the “DMPD^•+ removing IC50 (literature)” value in experiment [2] was 26.70 µg/mL. In experiment [3], the “Fe^3+-reducing absorbance values (previous studies)” value (“Fe^3+-reducing absorbance values” below) is recorded as 2.509.
As to `COc1ccc(O)c(C(C)(C)C)c1` [BHA, butylated hydroxyanisole], the “DMPD^•+ Scavenging IC50” value in experiment [4] was 11.99 µg/mL. For the same molecule, the “Fe^3+ Reducing λ (700 nm) absorbance” value in [5] amounted to 2.347. Moreover, the “DPPH^• Scavenging IC50” value in experiment [6] came out at 10.10 µg/mL. Besides, the “Cu^2+ Reducing λ (450 nm) absorbance” value in experiment [7] was 2.216. The “ABTS^•+ Scavenging IC50” value in experiment [8] was 5.07 µg/mL.
As for `O=C(O)/C=C/c1ccc(O)c(O)c1` [caffeic acid], the “Fe^3+-reducing absorbance values” value in [3] is given as 2.769.
With `Cc1c(C)c2c(c(C)c1O)CCC(C)(C(=O)O)O2` (centres unmarked) [Trolox], in [4], the “DMPD^•+ Scavenging IC50” value is 4.33 µg/mL. In addition, in experiment [5], the “Fe^3+ Reducing λ (700 nm) absorbance” value is reported as 2.119. In addition, in experiment [6], the “DPPH^• Scavenging IC50” value was found to be 7.059 µg/mL. In addition, the “Cu^2+ Reducing λ (450 nm) absorbance” value in [7] stood at 1.548. Also, the “ABTS^•+ Scavenging IC50” value in experiment [8] amounted to 6.16 µg/mL.
Consider `CCCCCc1cc(O)cc(O)c1` [olivetol], for which, in experiment [1], the “DPPH^• removal IC50 (literature)” value is 17.77 µg/mL and the “IC50 values for comparison (radical scavenging; assay not given, paragraph on DPPH)” value is 1.94 µg/mL. Besides, the “Cu^2+-reducing absorbance values (natural phenolics)” value (from here on “Cu^2+-reducing absorbance values”) in experiment [9] is recorded as 1.314. In [2], the “DMPD^•+ removing IC50 (literature)” value is 19.25 µg/mL.
With `Cc1cc(C(C)(C)C)c(O)c(C(C)(C)C)c1` [BHT, butylated hydroxytoluene], the “DMPD^•+ Scavenging IC50” value in [4] came out at 8.72 µg/mL. For the same molecule, the “Fe^3+ Reducing λ (700 nm) absorbance” value in experiment [5] stood at 0.952. Further, the “DPPH^• Scavenging IC50” value in [6] was determined as 25.95 µg/mL. The “Cu^2+ Reducing λ (450 nm) absorbance” value in experiment [7] worked out at 2.044. Also, the “ABTS^•+ Scavenging IC50” value in [8] was found to be 6.99 µg/mL.
With `COc1ccc2c(c1O)-c1c(O)c(OC)cc3c1[C@H](C2)[N+](C)(C)CC3` [Magnofluorine], the “DMPD^•+ Scavenging IC50” value in [4] was found to be 15.26 µg/mL. Moreover, the IC50 in experiment [10] was 0.01 µM; in [11], 0.026 µM. For the same molecule, the “Fe^3+ Reducing λ (700 nm) absorbance” value in experiment [5] is given as 0.967. In experiment [6], the “DPPH^• Scavenging IC50” value was determined as 10.58 µg/mL. The “Cu^2+ Reducing λ (450 nm) absorbance” value in experiment [7] was 0.458. Moreover, the “ABTS^•+ Scavenging IC50” value in experiment [8] turned out to be 27.61 µg/mL. Moreover, in experiment [11] (Lineweaver-Burk graphs, mean ± SD, read-out: Ki CA II), the Ki was 0.0254 ± 0.0011 µM.
Turning to tannic acid, in [3], the “Fe^3+-reducing absorbance values” value was 2.428.
On to `O=c1[nH]c(=O)c2[nH]c(=O)[nH]c2[nH]1` [uric acid], for which, in experiment [3], the “Fe^3+-reducing absorbance values” value was 0.432.
Regarding `O=c1oc2cc(O)ccc2c2oc3cc(O)ccc3c12` [coumestrol], the “IC50 values for comparison (radical scavenging; assay not given, paragraph on DPPH)” value in experiment [1] was 25.95 µg/mL. For the same molecule, the “Cu^2+-reducing absorbance values” value in [9] is reported as 0.739. The “DMPD^•+ removing IC50 (literature)” value in [2] was 12.81 µg/mL. In addition, the “Fe^3+-reducing absorbance values” value in experiment [3] is given as 0.739.
With `CC(=O)c1c(O)c(C)c(O)c2c1OC1=CC(=O)C(C(C)=O)C(=O)C12C` (centres unmarked) [usnic acid], in experiment [1], the “DPPH^• removal IC50 (literature)” value is 49.50 µg/mL and the “IC50 values for comparison (radical scavenging; assay not given, paragraph on DPPH)” value is 10.41 µg/mL. Further, the “Cu^2+-reducing absorbance values” value in experiment [9] was 0.277. The “DMPD^•+ removing IC50 (literature)” value in experiment [2] is 33.00 µg/mL. Further, in experiment [3], the “Fe^3+-reducing absorbance values” value is listed as 0.278.
Consider `C=CCc1ccc(O)c(OC)c1` [eugenol], for which, in [1], the “DPPH^• removal IC50 (literature)” value was 16.06 µg/mL and the “IC50 values for comparison (radical scavenging; assay not given, paragraph on DPPH)” value is 7.84 µg/mL. Moreover, the “Cu^2+-reducing absorbance values” value in [9] is reported as 0.762. The “DMPD^•+ removing IC50 (literature)” value in experiment [2] was 10.04 µg/mL.
With `O=C1c2c(O)cc(O)cc2OC(c2ccc(O)c(O)c2)C1O` (centres unmarked) [taxifolin], in [1], the “DPPH^• removal IC50 (literature)” value was 77.00 µg/mL and the “IC50 values for comparison (radical scavenging; assay not given, paragraph on DPPH)” value was 0.83 µg/mL. Also, the “Cu^2+-reducing absorbance values” value in [9] is listed as 0.750. Also, the “DMPD^•+ removing IC50 (literature)” value in experiment [2] is 173.25 µg/mL.
Take L-Adrenaline: in experiment [1], the “DPPH^• removal IC50 (literature)” value is 30.6 µg/mL and the “IC50 values for comparison (radical scavenging; assay not given, paragraph on DPPH)” value was 6.93 µg/mL. Moreover, the “DMPD^•+ removing IC50 (literature)” value in [2] was 15.6 µg/mL.
As for `Cc1c(C)c2c(c(C)c1O)CC[C@@](C)(CCC[C@H](C)CCC[C@H](C)CCCC(C)C)O2` [α-Tocopherol], the “DMPD^•+ Scavenging IC50” value in experiment [4] was 7.11 µg/mL. Moreover, the “Fe^3+ Reducing λ (700 nm) absorbance” value in experiment [5] was 0.957. In addition, the “DPPH^• Scavenging IC50” value in experiment [6] stood at 11.31 µg/mL. In addition, the “Cu^2+ Reducing λ (450 nm) absorbance” value in experiment [7] was 0.816. Besides, in experiment [8], the “ABTS^•+ Scavenging IC50” value is 8.73 µg/mL.
